Laboratory results published in patent publication US20050170966A1, “Surfactants and surfactant compositions” (priority 2002, published 2005).

What was measured:
[1] = system: Bindweed (Convolvulus arvensis); assay: Greenhouse trial of adjuvant with glyphosate; type: in vivo; details: for % kill: 7 DAT; for % fresh wt 33 days (foliage): 33 DAT
Description: (§1) This Example goves the results of greenhouse trials to investigate the adjuvant properties of compound SE2, with a fatty amine ethoxylate (FAE1) for comparitison, used in combination with glyphosate (isopropylamine salt?) as a herbicide against Couchgrass (Agropyron repens) and Bindweed (Convolvulus arvensis). Glyphosate doses of 180, 360 and 540 g(a.e.).ha^−1 were used against A. repens and 540, 810 and 1080 g(a.e.).ha^−1 against C. arvensis. The spray volume was 200 l.ha^−1 and ratios of glyphosate (active ingredient) to adjuvant of 2:0.75 (37.5%); 2:0.5 (25%); 2:0.25 (12.5%) and 2:0.1 (5%) (percentage figres in brackets are by weight adjuvant based on glyphosate a.e.) were tested. Weed kill was visually assessed 7, 14 and 21 days after treatment (DAT) and the % fresh weight of foliage was determined 22 and 33 DAT for A. repens and C. arvensis respectively. The % kill results at 7 DAT are set out in Table 3a and the % fresh weight of foliage determined 22 and 33 DAT is reported in Table 3b below. The % fresh weight of foliage is determined 22 and 33 DAT for A. repens and C. arvensis respectively and the results are included in Table 3b below: […]

[2] = system: Couchgrass (Agropyron repens); assay: Greenhouse trial of adjuvant with glyphosate; type: in vivo; details: for % kill: 7 DAT; for % fresh wt 22 days (foliage): 22 DAT
Description: as §1

1-[Bis-(2-hydroxyethyl)-amino]-2-hydroxypropane-3-(Alc1 15-ethoxylate) [SE2]
% kill ([1]; Gly 540, Adj 5% Gly): 14.29% | % kill ([1]; Gly 540, Adj 12.5% Gly): 14.29% | % kill ([1]; Gly 540, Adj 25% Gly): 14.29% | % kill ([1]; Gly 540, Adj 37.5% Gly): 14.29% | % kill ([1]; Gly 810, Adj 5% Gly): 14.29% | % kill ([1]; Gly 810, Adj 12.5% Gly): 17.86% | % kill ([1]; Gly 810, Adj 25% Gly): 14.29% | % kill ([1]; Gly 810, Adj 37.5% Gly): 14.29% | % kill ([1]; Gly 1080, Adj 5% Gly): 14.29% | % kill ([1]; Gly 1080, Adj 12.5% Gly): 14.29% | % kill ([1]; Gly 1080, Adj 25% Gly): 14.29% | % kill ([1]; Gly 1080, Adj 37.5% Gly): 14.29% | % fresh wt 33 days (foliage) ([1]; Gly 540, 5 wt % adjuvant): 54.61% | % fresh wt 33 days (foliage) ([1]; Gly 540, 12.5 wt % adjuvant): 54.21% | % fresh wt 33 days (foliage) ([1]; Gly 540, 25 wt % adjuvant): 54.97% | % fresh wt 33 days (foliage) ([1]; Gly 540, 37.5 wt % adjuvant): 53.73% | % fresh wt 33 days (foliage) ([1]; Gly 810, 5 wt % adjuvant): 53.91% | % fresh wt 33 days (foliage) ([1]; Gly 810, 12.5 wt % adjuvant): 62.03% | % fresh wt 33 days (foliage) ([1]; Gly 810, 25 wt % adjuvant): 52.01% | % fresh wt 33 days (foliage) ([1]; Gly 810, 37.5 wt % adjuvant): 55.38% | % fresh wt 33 days (foliage) ([1]; Gly 1080, 5 wt % adjuvant): 50.55% | % fresh wt 33 days (foliage) ([1]; Gly 1080, 12.5 wt % adjuvant): 53.29% | % fresh wt 33 days (foliage) ([1]; Gly 1080, 25 wt % adjuvant): 46.2% | % fresh wt 33 days (foliage) ([1]; Gly 1080, 37.5 wt % adjuvant): 43.89% | % kill ([2]; Gly 180, Adj 5% Gly): 17.86% | % kill ([2]; Gly 180, Adj 12.5% Gly): 17.86% | % kill ([2]; Gly 180, Adj 25% Gly): 21.43% | % kill ([2]; Gly 180, Adj 37.5% Gly): 21.43% | % kill ([2]; Gly 360, Adj 5% Gly): 14.29% | % kill ([2]; Gly 360, Adj 12.5% Gly): 28.57% | % kill ([2]; Gly 360, Adj 25% Gly): 32.14% | % kill ([2]; Gly 360, Adj 37.5% Gly): 25% | % kill ([2]; Gly 540, Adj 5% Gly): 28.57% | % kill ([2]; Gly 540, Adj 12.5% Gly): 25% | % kill ([2]; Gly 540, Adj 25% Gly): 35.71% | % kill ([2]; Gly 540, Adj 37.5% Gly): 39.29% | % fresh wt 22 days (foliage) ([2]; Gly 180, 5 wt % adjuvant): 95.49% | % fresh wt 22 days (foliage) ([2]; Gly 180, 12.5 wt % adjuvant): 59.81% | % fresh wt 22 days (foliage) ([2]; Gly 180, 25 wt % adjuvant): 48.07% | % fresh wt 22 days (foliage) ([2]; Gly 180, 37.5 wt % adjuvant): 53.01% | % fresh wt 22 days (foliage) ([2]; Gly 360, 5 wt % adjuvant): 63.31% | % fresh wt 22 days (foliage) ([2]; Gly 360, 12.5 wt % adjuvant): 35.66% | % fresh wt 22 days (foliage) ([2]; Gly 360, 25 wt % adjuvant): 29.69% | % fresh wt 22 days (foliage) ([2]; Gly 360, 37.5 wt % adjuvant): 40.02% | % fresh wt 22 days (foliage) ([2]; Gly 540, 5 wt % adjuvant): 23.83% | % fresh wt 22 days (foliage) ([2]; Gly 540, 12.5 wt % adjuvant): 19.63% | % fresh wt 22 days (foliage) ([2]; Gly 540, 25 wt % adjuvant): 19.6% | % fresh wt 22 days (foliage) ([2]; Gly 540, 37.5 wt % adjuvant): 18.36%
